From patent publication US20210087191A1, “SUBSTITUTED 3-ISOBUTYL-9,10-DIMETHOXY-1,3,4,6,7,11B-HEXAHYDRO-2H-PYRIDO[2,1-a]ISOQUINOLIN-2-OL COMPOUNDS, THEIR [sequence], AND USE THEREOF” (DISPERSOL TECHNOLOGIES, LLC, priority 2020, published 2021)
Converted amounts (≈) assume the structure as drawn. Like-named read-outs stand apart in the source and are kept apart here.

How the values were obtained:
[1] = Kinetic solubility in PBS buffer; type: physicochemical; settings: aqueous buffer, kinetic from dmso stock, compound suspended at 300 μM, 25° C.
Protocol: Kinetic solubility was determined by suspending compound at 300 μM at pH 1.2 and 7.4 in PBS buffer. The suspension was equilibrated by shaking at 25° C. at 1100 RPM for 2 hours and then pH was measured following filtration. The filtrate was then diluted by an appropriate factor (e.g. 100-fold). Quantitation was done by LC-MS/MS with reference to a standard solution.

[2] = Heps. stability assay, human cryopreserved hepatocytes; type: in vitro ADME; settings: for microsomal CLint: read-out: Heps. stability assay Human Clint (μL/min/mg protein); for half-life: read-out: Heps. stability assay Human t1/2
Protocol: Metabolism of compound(s) to release (+)-α-DTHBZ was determined by the half-life (t1/2) and intrinsic clearance (CIint) in human cryopreserved hepatocytes using tandem mass spectrometry (LC-MS/MS).

[3] = Metabolic stability in human liver microsomes (LM), LC-MS/MS (first table); type: in vitro ADME; settings: for microsomal CLint: Table 1, read-out: Human LM CLint (μL/min/mg protein); for half-life: Table 1, read-out: Human LM t1/2
Protocol: (§1) Metabolism of compound(s) to release (+)-α-DTHBZ was determined by the half-life (t1/2) and intrinsic clearance (CIint) in human plasma (PS) and liver microsomes (LM) using tandem mass spectrometry (LC-MS/MS).

[4] = Permeability in Caco-2 cell monolayer; type: in vitro ADME; settings: human; for Papp A→B: Caco-2, apical to basolateral; for Papp B→A: Caco-2, basolateral to apical; for efflux ratio: Caco-2
Protocol: The intestinal permeability of compound(s) was evaluated in Caco-2 cells by assessing transport across the cell monolayer in the apical to basolateral (A-B) direction. Active efflux was also assessed by measuring transport in the basolateral to apical (BA) direction which enables evaluation of the efflux ratio. Analysis of transport is quantified by tandem mass spectrometry (LC-MS/MS).

[5] = LM stability assay, human (second table); type: in vitro ADME; settings: human liver microsomes, Table 2; for microsomal CLint: read-out: LM stability assay Human Clint (μL/min/mg protein); for half-life: read-out: LM stability assay Human t1/2
Protocol: Metabolism of compound(s) to release (+)-α-DTHBZ was determined by the half-life (t1/2) and intrinsic clearance (CIint) in human liver microsomes (LM) using tandem mass spectrometry (LC-MS/MS).

[6] = Stability in human plasma (PS), LC-MS/MS; type: in vitro ADME; settings: for half-life: read-out: Human PS t1/2
Protocol: as §1

[7] = pH 1.2, PBS buffer, read-out: Kinetic Solubility pH = 1.2 (300 μM)
[8] = pH 7.4, PBS buffer, read-out: Kinetic Solubility pH = 7.4 (300 μM)

Row | Compound | solubility kinetic at 2 h [1, 7] [µM] | solubility kinetic at 2 h [1, 8] [µM] | microsomal CLint [2] [µL/min/mg] | half-life [2] [h] | microsomal CLint [3] [µL/min/mg] | half-life [3] [h] | Papp A→B [4] [×10⁻⁶ cm/s] | Papp B→A [4] [×10⁻⁶ cm/s] | microsomal CLint [5] [µL/min/mg] | half-life [5] [h] | Human PS t1/2 (min) [6] | efflux ratio [4] | half-life [6] [h] | LM stability assay Human t1/2 (min) [5]
1 | COc1cc2c(cc1OC)[C@H]1C[C@@H](OC(=O)CCCCCCC(=O)O[C@@H]3C[C@@H]4c5cc(OC)c(OC)cc5CCN4C[C@H]3CC(C)C)[C@H](CC(C)C)CN1CC2 [Example 16, bis[(2R,3R,11bR)-9,10-dimethoxy-3-(2-methylpropyl)-1H,2H,3H,4H,6H,7H,11bH-pyrido[2,1-a]isoquinolin-2-yl] octanedioate] | 141 (≈ 110 µg/mL) | 0.042 (≈ 0.0326 µg/mL) | 22.6 | 1.03 | < 1.25 | > 9.21 | < 0.02 | < 0.01 | 150 | 0.0775 | ∞ | – | – | –
2 | COc1cc2c(cc1OC)[C@H]1C[C@@H](OC(=O)c3cncc(C(=O)O[C@@H]4C[C@@H]5c6cc(OC)c(OC)cc6CCN5C[C@H]4CC(C)C)c3)[C@H](CC(C)C)CN1CC2 [Example 15, 3,5-bis[(2R,3R,11bR)-9,10-dimethoxy-3-(2-methylpropyl)-1H,2H,3H,4H,6H,7H,11bH-pyrido[2,1-a]isoquinolin-2-yl] pyridine-3,5-dicarboxylate] | 317 (≈ 244 µg/mL) | 0.06 (≈ 0.0462 µg/mL) | 16.6 | 1.39 | < 0.08 | > 143 | < 0.01 | < 0.01 | – | – | – | – | > 53.7 | ∞
3 | COc1cc2c(cc1OC)[C@H]1C[C@@H](OC(=O)CCC(=O)OC(C)C)[C@H](CC(C)C)CN1CC2 [Example 7, (2R,3R,11bR)-9,10-dimethoxy-3-(2-methylpropyl)-1H,2H,3H,4H,6H,7H,11bH-pyrido[2,1-a]isoquinolin-2-yl 1-isopropyl butanedioate] | 311 (≈ 143 µg/mL) | 5.84 (≈ 2.7 µg/mL) | 282 | 0.082 | 65.8 | 0.176 | 1.78 | 1.5 | 922 | 0.0125 | – | 0.84 | > 13.5 | –

The next lines start with the values.

Row | solubility kinetic at 2 h [1, 7] [µM] | solubility kinetic at 2 h [1, 8] [µM] | microsomal CLint [2] [µL/min/mg] | half-life [2] [h] | microsomal CLint [3] [µL/min/mg] | half-life [3] [h] | Papp A→B [4] [×10⁻⁶ cm/s] | Papp B→A [4] [×10⁻⁶ cm/s] | microsomal CLint [5] [µL/min/mg] | half-life [5] [h] | Human PS t1/2 (min) [6] | efflux ratio [4] | half-life [6] [h] | LM stability assay Human t1/2 (min) [5] | Compound
4 | 276 (≈ 131 µg/mL) | 306 (≈ 146 µg/mL) | 50.7 | 0.456 | 3.16 | 3.89 | 22.4 | 22 | 1.04 | 56.8 | ∞ | 0.98 | – | – | COc1cc2c(cc1OC)[C@H]1C[C@@H](OC(=O)CCCCCCC(=O)O)[C@H](CC(C)C)CN1CC2 [Example 5, 8-[[(2R,3R,11bR)-9,10-dimethoxy-3-(2-methylpropyl)-1H,2H,3H,4H,6H,7H,11bH-pyrido[2,1-a]isoquinolin-2-yl]oxy]-8-oxooctanoic acid]
5 | 312 (≈ 131 µg/mL) | 91.2 (≈ 38.2 µg/mL) | 35.6 | 0.649 | < 3.95 | > 2.92 | 14.2 | 9.54 | 208 | 0.0557 | – | 0.67 | 438 | – | COc1cc2c(cc1OC)[C@H]1C[C@@H](OC(=O)NCC(C)C)[C@H](CC(C)C)CN1CC2 [Example 23, (2R,3R,11bR)-9,10-dimethoxy-3-(2-methylpropyl)-1H,2H,3H,4H,6H,7H,11bH-pyrido[2,1-a]isoquinolin-2-yl N-(2-methylpropyl)carbamate]
6 | 308 (≈ 222 µg/mL) | 0.0019 (≈ 0.00137 µg/mL) | 16.9 | 1.37 | 1.59 | 7.6 | < 0.02 | 0.0333 | 71.5 | 0.162 | – | > 1.93 | 36.9 | – | COc1cc2c(cc1OC)[C@H]1C[C@@H](OC(=O)CCC(=O)O[C@@H]3C[C@@H]4c5cc(OC)c(OC)cc5CCN4C[C@H]3CC(C)C)[C@H](CC(C)C)CN1CC2 [Example 17]
